Converted amounts (≈) assume the structure as drawn.
Key:
[1] = system: Mycobacterium tuberculosis; experiment: Antimycobacterial activity against Mycobacterium tuberculosis H37Rv after 7 days by resazurin reduction microplate assay; format: functional; conditions: 168 h
[2] = system: Mycobacterium avium; experiment: Antimycobacterial activity against Mycobacterium avium CNCTC My 330/88 after 21 days by micromethod; format: functional; conditions: CNCTC My 330/88, 504 h
[3] = system: Mycobacterium tuberculosis; experiment: Antimycobacterial activity against Mycobacterium tuberculosis CNCTC My 331/88 after 14 days by micromethod; format: functional; conditions: CNCTC My 331/88, 336 h
[4] = system: Mycobacterium avium; experiment: Antimycobacterial activity against Mycobacterium avium CNCTC My 330/88 after 14 days by micromethod; format: functional; conditions: CNCTC My 330/88, 336 h
[5] = system: Mycobacterium kansasii; experiment: Antimycobacterial activity against Mycobacterium kansasii CNCTC My 235/80 after 14 days by micromethod; format: functional; conditions: CNCTC My 235/80, 336 h
[6] = system: Mycobacterium kansasii; experiment: Antimycobacterial activity against Mycobacterium kansasii 6509/96 clinical isolate after 14 days by micromethod; format: functional; conditions: 6509/96, 336 h
[7] = system: Candida albicans; experiment: Antifungal activity against Candida albicans ATCC 44859 after 24 hrs by broth microdilution method; format: functional; conditions: ATCC 44859, 24 h
[8] = system: Candida albicans; experiment: Antifungal activity against Candida albicans ATCC 44859 after 48 hrs by broth microdilution method; format: functional; conditions: ATCC 44859, 48 h
[9] = system: Candida tropicalis; experiment: Antifungal activity against Candida tropicalis 156 after 24 hrs by broth microdilution method; format: functional; conditions: Candida tropicalis, 156, 24 h
[10] = system: Candida tropicalis; experiment: Antifungal activity against Candida tropicalis 156 after 48 hrs by broth microdilution method; format: functional; conditions: Candida tropicalis, 156, 48 h
[11] = system: Pichia kudriavzevii; experiment: Antifungal activity against Candida krusei E28 after 24 hrs by broth microdilution method; format: functional; conditions: E28, 24 h
[12] = system: Pichia kudriavzevii; experiment: Antifungal activity against Candida krusei E28 after 48 hrs by broth microdilution method; format: functional; conditions: E28, 48 h
[13] = system: Nakaseomyces glabratus; experiment: Antifungal activity against Candida glabrata 20/I after 24 hrs by broth microdilution method; format: functional
[14] = system: Nakaseomyces glabratus; experiment: Antifungal activity against Candida glabrata 20/I after 48 hrs by broth microdilution method; format: functional
[15] = system: Trichosporon asahii; experiment: Antifungal activity against Trichosporon asahii 1188 after 24 hrs by broth microdilution method; format: functional; conditions: Trichosporon asahii, 1188, 24 h
[16] = system: Trichosporon asahii; experiment: Antifungal activity against Trichosporon asahii 1188 after 48 hrs by broth microdilution method; format: functional; conditions: Trichosporon asahii, 1188, 48 h
[17] = system: Aspergillus fumigatus; experiment: Antifungal activity against Aspergillus fumigatus 231 after 24 hrs by broth microdilution method; format: functional; conditions: Aspergillus fumigatus, 231, 24 h
[18] = system: Aspergillus fumigatus; experiment: Antifungal activity against Aspergillus fumigatus 231 after 48 hrs by broth microdilution method; format: functional; conditions: Aspergillus fumigatus, 231, 48 h
[19] = system: Lichtheimia corymbifera; experiment: Antifungal activity against Absidia corymbifera 272 after 24 hrs by broth microdilution method; format: functional; conditions: Lichtheimia corymbifera, 272, 24 h
[20] = system: Lichtheimia corymbifera; experiment: Antifungal activity against Absidia corymbifera 272 after 48 hrs by broth microdilution method; format: functional; conditions: Lichtheimia corymbifera, 272, 48 h
[21] = system: Trichophyton mentagrophytes; experiment: Antifungal activity against Trichophyton mentagrophytes 445 after 72 hrs by broth microdilution method; format: functional; conditions: Trichophyton mentagrophytes, 445, 72 h
[22] = system: Trichophyton mentagrophytes; experiment: Antifungal activity against Trichophyton mentagrophytes 445 after 120 hrs by broth microdilution method; format: functional; conditions: Trichophyton mentagrophytes, 445, 120 h
[23] = system: Staphylococcus aureus; experiment: Antibacterial activity against Staphylococcus aureus ATCC 6538 after 24 hrs by broth microdilution method; format: functional; conditions: ATCC 6538, 24 h
[24] = system: Staphylococcus aureus; experiment: Antibacterial activity against Staphylococcus aureus ATCC 6538 after 48 hrs by broth microdilution method; format: functional; conditions: ATCC 6538, 48 h
[25] = system: Staphylococcus aureus; experiment: Antibacterial activity against methicillin-resistant Staphylococcus aureus HK5996/08 after 24 hrs by broth microdilution method; format: functional; conditions: HK5996/08, 24 h
[26] = system: Staphylococcus aureus; experiment: Antibacterial activity against methicillin-resistant Staphylococcus aureus HK5996/08 after 48 hrs by broth microdilution method; format: functional; conditions: HK5996/08, 48 h
[27] = system: Staphylococcus epidermidis; experiment: Antibacterial activity against Staphylococcus epidermidis HK6996/08 after 24 hrs by broth microdilution method; format: functional; conditions: HK6996/08, 24 h
[28] = system: Staphylococcus epidermidis; experiment: Antibacterial activity against Staphylococcus epidermidis HK6996/08 after 48 hrs by broth microdilution method; format: functional; conditions: HK6996/08, 48 h
[29] = system: Enterococcus sp.; experiment: Antibacterial activity against Enterococcus sp. HK14365/08 after 24 hrs by broth microdilution method; format: functional; conditions: HK14365/08, 24 h
[30] = system: Enterococcus sp.; experiment: Antibacterial activity against Enterococcus sp. HK14365/08 after 48 hrs by broth microdilution method; format: functional; conditions: HK14365/08, 48 h
[31] = system: Escherichia coli; experiment: Antibacterial activity against Escherichia coli ATCC 8739 after 24 hrs by broth microdilution method; format: functional; conditions: ATCC 8739, 24 h
[32] = system: Escherichia coli; experiment: Antibacterial activity against Escherichia coli ATCC 8739 after 48 hrs by broth microdilution method; format: functional; conditions: ATCC 8739, 48 h
[33] = system: Klebsiella pneumoniae; experiment: Antibacterial activity against Klebsiella pneumoniae HK11750/08 after 24 hrs by broth microdilution method; format: functional; conditions: HK11750/08, 24 h
[34] = system: Klebsiella pneumoniae; experiment: Antibacterial activity against Klebsiella pneumoniae HK11750/08 after 48 hrs by broth microdilution method; format: functional; conditions: HK11750/08, 48 h
[35] = system: Klebsiella pneumoniae; experiment: Antibacterial activity against extended spectrum beta-lactamase producing Klebsiella pneumoniae HK14368/08 after 24 hrs by broth microdilution method; format: functional; conditions: HK14368/08, 24 h
[36] = system: Klebsiella pneumoniae; experiment: Antibacterial activity against extended spectrum beta-lactamase producing Klebsiella pneumoniae HK14368/08 after 48 hrs by broth microdilution method; format: functional; conditions: HK14368/08, 48 h
[37] = system: Pseudomonas aeruginosa; experiment: Antibacterial activity against Pseudomonas aeruginosa ATCC 9027 after 24 hrs by broth microdilution method; format: functional; conditions: ATCC 9027, 24 h
[38] = system: Pseudomonas aeruginosa; experiment: Antibacterial activity against Pseudomonas aeruginosa ATCC 9027 after 48 hrs by broth microdilution method; format: functional; conditions: ATCC 9027, 48 h
[39] = Cytotoxicity against human HuH7 cells assessed as cell viability at 30 uM after 48 hrs by MTS assay relative to control; format: cell-based, Huh-7; conditions: read-out: Activity
[40] = system: Huh-7; experiment: Cytotoxicity against human HuH7 cells assessed as cell viability after 48 hrs by MTS assay; format: cell-based; conditions: Huh-7, 48 h
[41] = system: A-431; experiment: Cytotoxicity against human A431 cells assessed as cell viability after 48 hrs by MTS assay; format: cell-based; conditions: A-431, 48 h
[42] = Cytotoxicity against human A431 cells assessed as cell viability at 30 uM after 48 hrs by MTS assay relative to control; format: cell-based, A-431; conditions: read-out: Activity
[43] = system: MDCK; experiment: Cytotoxicity against MDCK cells assessed as cell viability after 48 hrs by MTS assay; format: cell-based; conditions: Canis lupus familiaris
[44] = Cytotoxicity against MDCK cells assessed as cell viability at 30 uM after 48 hrs by MTS assay relative to control; format: cell-based, Canis lupus familiaris; conditions: dog, read-out: Activity
[45] = system: HepG2; experiment: Cytotoxicity against human HepG2 cells assessed as cell viability after 48 hrs by MTS assay; format: cell-based; conditions: HepG2, 48 h
[46] = Cytotoxicity against human HepG2 cells assessed as cell viability at 30 uM after 48 hrs by MTS assay relative to control; format: cell-based; conditions: read-out: Activity
[47] = Selectivity index, ratio of IC50 for human HepG2 cells to MIC for Mycobacterium tuberculosis; format: toxicity; conditions: read-out: Selectivity Index
[48] = system: Mycobacterium tuberculosis; experiment: Antimycobacterial activity against Mycobacterium tuberculosis CNCTC My 331/88 after 21 days by micromethod; format: functional; conditions: CNCTC My 331/88, 504 h
[49] = system: Mycobacterium kansasii; experiment: Antimycobacterial activity against Mycobacterium kansasii CNCTC My 235/80 after 21 days by micromethod; format: functional; conditions: CNCTC My 235/80, 504 h
[50] = system: Mycobacterium kansasii; experiment: Antimycobacterial activity against Mycobacterium kansasii CNCTC My 235/80 after 7 days by micromethod; format: functional; conditions: CNCTC My 235/80, 168 h
[51] = system: Mycobacterium kansasii; experiment: Antimycobacterial activity against Mycobacterium kansasii 6509/96 clinical isolate after 21 days by micromethod; format: functional; conditions: 6509/96, 504 h
[52] = system: Mycobacterium kansasii; experiment: Antimycobacterial activity against Mycobacterium kansasii 6509/96 clinical isolate after 7 days by micromethod; format: functional; conditions: 6509/96, 168 h

Cc1nc2cc(Br)cc([N+](=O)[O-])c2nc1-c1ccccc1
MIC [1]: 3.1 µM (≈ 1.07 µg/mL)

COc1ccc(CSc2nnc(-c3cc([N+](=O)[O-])cc([N+](=O)[O-])c3)o2)cc1
MIC [2]: 4 µM (≈ 1.55 µg/mL)
MIC [3]: 0.03 µM (≈ 0.0117 µg/mL)
MIC [4]: 4 µM (≈ 1.55 µg/mL)
MIC [5]: 0.125 µM (≈ 0.0485 µg/mL)
MIC [6]: 0.25 µM (≈ 0.0971 µg/mL)
MIC [7]: > 500 µM
MIC [8]: > 500 µM
MIC [9]: > 500 µM
MIC [10]: > 500 µM
MIC [11]: > 500 µM
MIC [12]: > 500 µM
MIC [13]: > 500 µM
MIC [14]: > 500 µM
MIC [15]: > 500 µM
MIC [16]: > 500 µM
MIC [17]: > 500 µM
MIC [18]: > 500 µM
MIC [19]: > 500 µM
MIC [20]: > 500 µM
MIC [21]: > 500 µM
MIC [22]: > 500 µM
MIC [23]: > 500 µM
MIC [24]: > 500 µM
MIC [25]: > 500 µM
MIC [26]: > 500 µM
MIC [27]: > 500 µM
MIC [28]: > 500 µM
MIC [29]: > 500 µM
MIC [30]: > 500 µM
MIC [31]: > 500 µM
MIC [32]: > 500 µM
MIC [33]: > 500 µM
MIC [34]: > 500 µM
MIC [35]: > 500 µM
MIC [36]: > 500 µM
MIC [37]: > 500 µM
MIC [38]: > 500 µM
viability at 48 h, 30 µM [39]: 118%
IC50 [40]: > 30 µM
IC50 [41]: > 30 µM
viability at 48 h, 30 µM [42]: 93%
IC50 [43]: > 30 µM
viability at 48 h, 30 µM [44]: 119%
IC50 [45]: > 30 µM
viability at 48 h, 30 µM [46]: 126%
selectivity ratio [47]: > 1000
MIC [48]: 0.06 µM (≈ 0.0233 µg/mL)
MIC [49]: 0.125 µM (≈ 0.0485 µg/mL)
MIC [50]: 0.125 µM (≈ 0.0485 µg/mL)
MIC [51]: 0.25 µM (≈ 0.0971 µg/mL)
MIC [52]: 0.125 µM (≈ 0.0485 µg/mL)

Reference: ChEMBL document CHEMBL4002566, “S-substituted 3,5-dinitrophenyl 1,3,4-oxadiazole-2-thiols and tetrazole-5-thiols as highly efficient antitubercular agents” (Eur J Med Chem, 2017)
